Test in all cases: NCI anticancer screen, dose series, 48 h
Test [1] relates to CAKI-1 renal.
Test [2] concerns HOP-62 NSCLC.
For test [3], the system named is TK-10 renal.
In test [4] the test system is UACC-257 melanoma.
Test [5] relates to SF-295 CNS.
The subject of test [6] is SK-OV-3 ovarian.
Test [7] has as its system K-562 leukemia.
For test [8], the system named is MDA-MB-231 breast.
For test [9], the system named is COLO 205 colon.

Several values for one entry are separate records, joined by “and”; a condition that tells them apart may be missing. Equal values may be shown once.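 Protocol summary: plate cells (96-well), add compound at 5 concentrations, incubate 48 h, interpolate endpoints linearly. Here, GI50 denotes the concentration required for 50% inhibition of growth. The concentration for full growth arrest is given as TGI.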

Turning to `CN(C)C(=S)/N=c1\ssc(=S)n1C`, the TGI in [1], in test [2], in [3], in [4], in test [5] and in test [6] was above 100 µM in each case. In addition, the TGI in test [7] is above 100 µM.

Consider `CC(=O)c1cccc(NC(=O)C(=O)c2c(O)c3ccccc3oc2=O)c1`, for which the TGI in test [8], in test [1], in test [2], in test [3], in test [4] and in test [5] was above 100 µM each time. Further, the TGI in [6] and in [7] was above 100 µM each time.

For the molecule `COC(=O)C(=O)C(CC(=O)Nc1ccc(C)cc1)C(=O)OC` (centres undefined), the TGI in test [1], in test [2], in test [3], in test [4], in test [5] and in test [6] was above 100 µM throughout. In test [7], this molecule registered a TGI above 100 µM.

Consider `COC(=O)c1cc(=O)nc2cc3cccccc3n12`, for which the TGI in test [2], in [3], in test [4], in test [5], in test [6] and in test [9] was above 100 µM in each case. Further, the TGI in [7] is above 100 µM.

Turning to `C1=Cc2nc1c(-c1ccccc1)c1ccc([nH]1)c(-c1ccccc1)c1nc(c(-c3ccccc3)c3ccc([nH]3)c2-c2ccccc2)C=C1`, the TGI in test [1], in test [2], in [3], in [4], in [5] and in test [6] was above 100 µM in each case. For the same molecule, the TGI in test [9] and in test [7] was above 100 µM each time.

Consider `COc1ccccc1-c1cc(=O)c2cc(C)c(C)c(C(=O)O)c2o1`, for which the TGI in test [2], in test [3], in test [4], in test [5], in [6] and in [9] was above 100 µM each time. Besides, the TGI in [7] was above 100 µM.

As to `O=C1c2ccccc2C(=O)C12CCc1ccccc12`, the TGI in [1], in test [2], in test [3], in [5], in test [6] and in test [9] was above 100 µM in each case. The molecule also had a TGI in [7] above 100 µM.

As to `COc1cc(C(=O)N[C@H]2CCc3cc(OC)c(OC)c(OC)c3-c3ccc(SC)c(=O)cc32)cc(OC)c1OC`, the GI50 in test [2] is 0.47 µM; in test [3], 16.1 µM. Further, the TGI in test [2] was 25 µM and > 100 µM; in [3] it was 25 µM and > 100 µM; in test [4], 19.1 µM and > 100 µM; in test [5], 0.0684 µM and 0.0328 µM; in [6], 0.0203 µM; in [7], 25 µM and > 100 µM.

With `C=C1C(=O)OC2C1CCC(C)C1(O)C=CC(=O)C21C` (centres undefined), the TGI in test [2], in [3], in test [5], in test [6], in test [9] and in test [7] was above 10 µM each time.

As for `CCOc1ccc(N=C(NC(=O)c2ccccc2)SC)cc1`, the TGI in test [1], in [2], in [3], in test [4], in test [5] and in [6] was above 100 µM in each case. Moreover, the TGI in test [9] and in test [7] was above 100 µM each time.

Consider `CC1(C)OC(=S)N(c2ccccc2)C12C=Cc1cc3ccccc3nc1S2` (centres undefined), for which the TGI in test [2], in [3], in test [4], in test [6], in test [9] and in [7] was above 100 µM in each case.

As to `O=C1CCC2(c3ccccc3)Nc3ccccc3N12` (centres undefined), the TGI in test [1], in test [2], in [3], in test [4], in test [5] and in test [9] was above 100 µM throughout. The molecule further returned a TGI in [7] above 100 µM.

In the case of `O=c1c2c(-c3ccccc3)c3ccccc3nc2cnn1-c1ccccc1`, the TGI in test [1], in [2], in [3], in test [4], in [5] and in test [6] was above 100 µM in each case. The TGI in test [9] and in test [7] was above 100 µM in each case.

In the case of `CCC1=CCN(c2cc(C)ccn2)OC1c1ccccc1` (centres undefined), the TGI in [1], in test [2], in test [4], in [5], in test [6] and in test [9] was above 100 µM throughout. In test [7], this molecule came in with a TGI above 100 µM.

With `CC(=O)OC(C(=O)[O][Sn]([CH3])([CH3])[CH3])c1ccccc1` (centres undefined), the GI50 in test [1], in test [2], in test [3], in test [4], in test [5] and in [6] was above 100 µM throughout. For the same molecule, the GI50 in test [9] and in [7] was above 100 µM in each case. Further, the TGI in [1], in test [2], in [3], in test [4], in test [5] and in test [6] was above 100 µM throughout. Also, the TGI in test [9] and in [7] was above 100 µM in each case.

Take `COC(=O)C(C(=O)C(=O)Nc1ccc(C)cc1C)c1csc(-n2nc(-c3ccccc3)cc2-c2ccccc2)n1` (centres undefined): the TGI in test [1], in test [2], in test [3], in test [4], in [6] and in test [9] was above 100 µM in each case. In [7], this molecule gave a TGI above 100 µM.

(Values after PubChem BioAssay (NCI).)
